Converted amounts (≈) assume the structure as drawn. Where two headings read alike, the source gives them in different places.
Columns and labels:
[1] = tested on: Gn-Ib: Cephalothin(CET)-resistant E. coli (3) and Kl. pneumoniae (2); test: MIC, two-fold serial agar dilution, Gn-Ib; format: cell-based; conditions: Escherichia coli, read-out: Geometric mean of MIC, Gn-Ib, 5 strains; Mueller-Hinton agar
Protocol: (§1) Minimum inhibitory concentrations (MICs) of the present series of cephalosporins were determined against 32 strains of test organisms by two-fold serial agar dilution method in Mueller-Hinton agar. Geometric means of MICs were calculated against six groups of the test organisms which are classified as follows and summarized in Table 1.
Gn-Ib Cephalothin(CET)-resistant E. coli (3) and Kl.

S. aureus Smith [2] = test: MIC, agar dilution; format: cell-based; conditions: Staphylococcus aureus, 18 h
Protocol: as §1
(§2) In vivo antibacterial activity was determined against three bacterial infections (S. aureus Smith, E. coli Juhl and P. aeruginosa A9843A) by intramuscular administration to mice just after the bacterial challenge. PD50 values are summarized in Table 3 in comparsion with the MIC values against the corresponding organisms.
(§3) Medium; MuellerHinton agar (pH = 7.2)
(§4) Incubation temperature: 32° C., 18 hr
(§5) Inoculum size; 10^6 cells/ml

P. aeruginosa A9843A [3] = test: MIC, agar dilution; format: cell-based; conditions: Pseudomonas aeruginosa, A9843A, 18 h
Protocol: as §1, §2, §3, §4, §5

E. coli Juhl A15119 = test: MIC, agar dilution; format: cell-based; conditions: Escherichia coli, read-out: MIC
Protocol: as §1, §2, §3, §4, §5

S. aureus Smith [4] = test: In vivo antibacterial activity, S. aureus Smith infection; conditions: Staphylococcus aureus, mice, im just after bacterial challenge, read-out: PD50
Protocol: as §2

[5] = tested on: Gp-Ib: Penicillin(PC)-resistant S. aureus (5); test: MIC, two-fold serial agar dilution, Gp-Ib; format: cell-based; conditions: Staphylococcus aureus, 5 strains, Mueller-Hinton agar, read-out: Geometric mean of MIC
Protocol: as §1
Gp-Ib Penicillin(PC)-resistant S. aureus (5).

[6] = tested on: Gn-II: M.morganii (1), Ent. cloacae (2) and Ser. marcescens (2); test: MIC, two-fold serial agar dilution, Gn-II; format: cell-based; conditions: read-out: Geometric mean of MIC
Protocol: as §1
Gn-II M.morganii (1), Ent. cloacae (2) and Ser.

[7] = tested on: Gn-Ia: Cephalothin(CET)-sensitive E. coli (2), Kl. pneumoniae (1) and Pr. mirabilis (2); test: MIC, two-fold serial agar dilution, Gn-Ia; format: cell-based; conditions: 5 strains, Mueller-Hinton agar, read-out: Geometric mean of MIC
Protocol: as §1
Gn-Ia Cephalothin(CET)-sensitive E. coli (2), Kl.
pneumoniae (1) and Pr. mirabilis (2).

E. coli Juhl = test: In vivo antibacterial activity, E. coli Juhl infection; conditions: Escherichia coli, mice, im just after bacterial challenge, read-out: PD50
Protocol: as §2

[8] = tested on: Gn-III: Ps. aeruginosa (7); test: MIC, two-fold serial agar dilution, Gn-III; format: cell-based; conditions: Pseudomonas aeruginosa, Gn-III, 7 strains; Mueller-Hinton agar; read-out: Geometric mean of MIC
Protocol: as §1
Gn-III Ps. aeruginosa (7).

[9] = tested on: Gp-Ia: Penicillin(PC)-sensitive S. aureus (5 strains); test: MIC, two-fold serial agar dilution, Gp-Ia; format: cell-based; conditions: Staphylococcus aureus, Mueller-Hinton agar, read-out: Geometric mean of MIC
Protocol: as §1
Gp-Ia Penicillin(PC)-sensitive S. aureus (5 strains).

P. aeruginosa A9843A [10] = test: In vivo antibacterial activity, P. aeruginosa A9843A infection; design: species or system mice; conditions: Pseudomonas aeruginosa, A9843A, in Mus musculus, im, read-out: PD50
Protocol: as §2

C. freundii GN 7391 = test: MIC, agar dilution; format: cell-based; conditions: Citrobacter freundii, GN7391, Mueller-Hinton agar pH 7.2, 32° C., 18 hr, 10^6 cells/ml
Protocol: as §1, §3, §4, §5

P. cepacia A21213 = test: MIC, agar dilution; format: cell-based; conditions: Burkholderia cepacia, Mueller-Hinton agar pH 7.2, 32° C., 18 hr, 10^6 cells/ml
Protocol: as §1, §3, §4, §5

P. aeruginosa IPM-8 = test: MIC, agar dilution; format: cell-based; conditions: Pseudomonas aeruginosa, IPM8, Mueller-Hinton agar pH 7.2, 32° C., 18 hr, 10^6 cells/ml
Protocol: as §1, §3, §4, §5

M. luteus 1001 = test: MIC, agar dilution; format: cell-based; conditions: Micrococcus luteus, Mueller-Hinton agar pH 7.2, 32° C., 18 hr, 10^6 cells/ml
Protocol: as §1, §3, §4, §5

X. maltophilia GN 12873 = test: MIC, agar dilution; format: cell-based; conditions: Stenotrophomonas maltophilia, GN12873, Mueller-Hinton agar pH 7.2, 32° C., 18 hr, 10^6 cells/ml
Protocol: as §1, §3, §4, §5

P. aeruginosa KKA 19 = test: MIC, agar dilution; format: cell-based; conditions: Pseudomonas aeruginosa, KKA19, Mueller-Hinton agar pH 7.2, 32° C., 18 hr, 10^6 cells/ml
Protocol: as §1, §3, §4, §5

K. pneumoniae PCI 602 = test: MIC, agar dilution; format: cell-based; conditions: Klebsiella pneumoniae, PCI602, Mueller-Hinton agar pH 7.2, 32° C., 18 hr, 10^6 cells/ml
Protocol: as §1, §3, §4, §5

S. marcescens IPM-15 = test: MIC, agar dilution; format: cell-based; conditions: Serratia marcescens, IPM15, Mueller-Hinton agar pH 7.2, 32° C., 18 hr, 10^6 cells/ml
Protocol: as §1, §3, §4, §5

S. aureus 4-1015 (MRSA) = test: MIC, agar dilution; format: cell-based; conditions: Staphylococcus aureus, Mueller-Hinton agar pH 7.2, 32° C., 18 hr, 10^6 cells/ml
Protocol: as §1, §3, §4, §5

P. cepacia No. 651 = test: MIC, agar dilution; format: cell-based; conditions: Burkholderia cepacia, Mueller-Hinton agar pH 7.2, 32° C., 18 hr, 10^6 cells/ml
Protocol: as §1, §3, §4, §5

P. mirabilis IFO-2849 = test: MIC, agar dilution; format: cell-based; conditions: Proteus mirabilis, IFO2849, Mueller-Hinton agar pH 7.2, 32° C., 18 hr, 10^6 cells/ml
Protocol: as §1, §3, §4, §5

P. rettgeri IPM-14 = test: MIC, agar dilution; format: cell-based; conditions: Providencia rettgeri, IPM14, Mueller-Hinton agar pH 7.2, 32° C., 18 hr, 10^6 cells/ml
Protocol: as §1, §3, §4, §5

P. aeruginosa A20599 = test: MIC, agar dilution; format: cell-based; conditions: Pseudomonas aeruginosa, Mueller-Hinton agar pH 7.2, 32° C., 18 hr, 10^6 cells/ml
Protocol: as §1, §3, §4, §5

S. epidermidis 11-1230 = test: MIC, agar dilution; format: cell-based; conditions: Staphylococcus epidermidis, 111230, Mueller-Hinton agar pH 7.2, 32° C., 18 hr, 10^6 cells/ml
Protocol: as §1, §3, §4, §5

P. vulgaris IPM-13 = test: MIC, agar dilution; format: cell-based; conditions: Proteus vulgaris, IPM13, Mueller-Hinton agar pH 7.2, 32° C., 18 hr, 10^6 cells/ml
Protocol: as §1, §3, §4, §5

C. terrigena IFO 12685 = test: MIC, agar dilution; format: cell-based; conditions: Mueller-Hinton agar pH 7.2, 32° C., 18 hr, 10^6 cells/ml
Protocol: as §1, §3, §4, §5

X. maltophilia No. 661 = test: MIC, agar dilution; format: cell-based; conditions: Stenotrophomonas maltophilia, Mueller-Hinton agar pH 7.2, 32° C., 18 hr, 10^6 cells/ml
Protocol: as §1, §3, §4, §5

P. aeruginosa IPM-9 = test: MIC, agar dilution; format: cell-based; conditions: Pseudomonas aeruginosa, IPM9, Mueller-Hinton agar pH 7.2, 32° C., 18 hr, 10^6 cells/ml
Protocol: as §1, §3, §4, §5

E. coli 255 = test: MIC, agar dilution; format: cell-based; conditions: Escherichia coli, Mueller-Hinton agar pH 7.2, 32° C., 18 hr, 10^6 cells/ml
Protocol: as §1, §3, §4, §5

E. cloacae IPM-12 = test: MIC, agar dilution; format: cell-based; conditions: Enterobacter cloacae, IPM12, Mueller-Hinton agar pH 7.2, 32° C., 18 hr, 10^6 cells/ml
Protocol: as §1, §3, §4, §5

E. faecalis A9808 = test: MIC, agar dilution; format: cell-based; conditions: Enterococcus faecalis, Mueller-Hinton agar pH 7.2, 32° C., 18 hr, 10^6 cells/ml
Protocol: as §1, §3, §4, §5

S. aureus 209P = test: MIC, agar dilution; format: cell-based; conditions: Staphylococcus aureus; S. aureus 209P; Mueller-Hinton agar pH 7.2; 32° C., 18 hr; 10^6 cells/ml; read-out: MIC
Protocol: as §1, §3, §4, §5

E. faecium A24817 = test: MIC, agar dilution; format: cell-based; conditions: Enterococcus faecium, Mueller-Hinton agar pH 7.2, 32° C., 18 hr, 10^6 cells/ml
Protocol: as §1, §3, §4, §5

S. aureus IPM-24 (MRSA) = test: MIC, agar dilution; format: cell-based; conditions: Staphylococcus aureus, Mueller-Hinton agar pH 7.2, 32° C., 18 hr, 10^6 cells/ml
Protocol: as §1, §3, §4, §5

B. subtilis PCI 219 = test: MIC, agar dilution; format: cell-based; conditions: Bacillus subtilis, PCI219, Mueller-Hinton agar pH 7.2, 32° C., 18 hr, 10^6 cells/ml
Protocol: as §1, §3, §4, §5

M. morgani 1510 = test: MIC, agar dilution; format: cell-based; conditions: Mueller-Hinton agar pH 7.2, 32° C., 18 hr, 10^6 cells/ml
Protocol: as §1, §3, §4, §5

M. morgani 1510/9 = test: MIC, agar dilution; format: cell-based; conditions: Mueller-Hinton agar pH 7.2, 32° C., 18 hr, 10^6 cells/ml
Protocol: as §1, §3, §4, §5

S. marcescens IPM-16 = test: MIC, agar dilution; format: cell-based; conditions: Serratia marcescens, IPM16, Mueller-Hinton agar pH 7.2, 32° C., 18 hr, 10^6 cells/ml
Protocol: as §1, §3, §4, §5

CO/N=C(\C(=O)NC1C(=O)N2C(C(=O)[O-])=C(/C=C/C[N+]3(C)Cc4cc(O)c(O)cc4C3)CS[C@H]12)c1csc(N)n1 (stereo partly shown) [Compound Id, 7-[(Z)-2-(2-aminothiazol-4-yl)-2-methoxyiminoacetamido]-3-[(E)-3-(5,6-dihydroxy-2-methyl-2-isoindolinio)-1-propen-1-yl]-3-cephem-4-carboxylate]
MIC [1]: 0.46 µg/mL (≈ 0.784 µM)
MIC (S. aureus Smith [2]; S. aureus Smith (Table 3), read-out: MIC): 1.6 µg/mL (≈ 2.73 µM)
MIC (P. aeruginosa A9843A [3]): 3.1 µg/mL (≈ 5.28 µM)
MIC (E. coli Juhl A15119; JUHLA15119, 18 h, E. coli Juhl (Table 3)): 0.4 µg/mL (≈ 0.682 µM)
ED50 (S. aureus Smith [4]): 0.33 mg/kg
MIC [5]: 3.1 µg/mL (≈ 5.28 µM)
MIC [6]: 0.79 µg/mL (≈ 1.35 µM)
MIC [7]: 0.15 µg/mL (≈ 0.256 µM)
ED50 (E. coli Juhl): 0.012 mg/kg
MIC [8]: 2.6 µg/mL (≈ 4.43 µM)
MIC [9]: 1.6 µg/mL (≈ 2.73 µM)
ED50 (P. aeruginosa A9843A [10]): 6.8 mg/kg

C[n+]1cn(C/C=C/C2=C(C(=O)[O-])N3C(=O)C(NC(=O)/C(=N\OC(C)(C)C(=O)O)c4csc(N)n4)C3SC2)c2cc(O)c(O)cc21 (stereo not shown) [Ip, 7-[(Z)-2-(2-Aminothiazol-4-yl)-2-(1-methyl-1-carboxyethoxy-imino)acetamido]-3-[(E)-3-(5,6-dihydroxy-3-methylbenzimi-dazol-3-io-1-yl)-1-propen-1-yl]-3-cephem-4-carboxylate]
MIC (S. aureus Smith [2]; pH 7.2): 100 µg/mL (≈ 152 µM)
MIC (P. aeruginosa A9843A [3]; pH 7.2): 0.1 µg/mL (≈ 0.152 µM)
MIC (E. coli Juhl A15119; JUHLA15119, E. coli Juhl A15119, Mueller-Hinton agar pH 7.2, 32° C., 18 hr, 10^6 cells/ml): 0.2 µg/mL (≈ 0.304 µM)
MIC (C. freundii GN 7391): 12.5 µg/mL (≈ 19 µM)
MIC (P. cepacia A21213): 1.6 µg/mL (≈ 2.43 µM)
MIC (P. aeruginosa IPM-8): 0.1 µg/mL (≈ 0.152 µM)
MIC (M. luteus 1001): 3.1 µg/mL (≈ 4.71 µM)
MIC (X. maltophilia GN 12873): 1.6 µg/mL (≈ 2.43 µM)
MIC (P. aeruginosa KKA 19): 0.2 µg/mL (≈ 0.304 µM)
MIC (K. pneumoniae PCI 602): 0.013 µg/mL (≈ 0.0198 µM)
MIC (S. marcescens IPM-15): > 100 µg/mL
MIC (S. aureus 4-1015 (MRSA)): > 100 µg/mL
MIC (P. cepacia No. 651): 3.1 µg/mL (≈ 4.71 µM)
MIC (P. mirabilis IFO-2849): 0.05 µg/mL (≈ 0.076 µM)
MIC (P. rettgeri IPM-14): 0.2 µg/mL (≈ 0.304 µM)
MIC (P. aeruginosa A20599): 0.2 µg/mL (≈ 0.304 µM)
MIC (S. epidermidis 11-1230): 25 µg/mL (≈ 38 µM)
MIC (P. vulgaris IPM-13): 12.5 µg/mL (≈ 19 µM)
MIC (C. terrigena IFO 12685): 1.6 µg/mL (≈ 2.43 µM)
MIC (X. maltophilia No. 661): 0.8 µg/mL (≈ 1.22 µM)
MIC (P. aeruginosa IPM-9): 12.5 µg/mL (≈ 19 µM)
MIC (E. coli 255): 0.05 µg/mL (≈ 0.076 µM)
MIC (E. cloacae IPM-12): 3.1 µg/mL (≈ 4.71 µM)
MIC (E. faecalis A9808): > 100 µg/mL
MIC (S. aureus 209P): 25 µg/mL (≈ 38 µM)
MIC (E. faecium A24817): > 100 µg/mL
MIC (S. aureus IPM-24 (MRSA)): > 100 µg/mL
MIC (B. subtilis PCI 219): 12.5 µg/mL (≈ 19 µM)
MIC (M. morgani 1510): 1.6 µg/mL (≈ 2.43 µM)
MIC (M. morgani 1510/9): 0.1 µg/mL (≈ 0.152 µM)
MIC (S. marcescens IPM-16): 3.1 µg/mL (≈ 4.71 µM)

Source: patent publication US5126336A, “Antibiotic C-3 catechol-substituted cephalosporin compounds, compositions and method of use thereof” (Bristol-Myers Squibb Company, priority 1990, dated 1992)
